Legend:
Format in all cases: functional, Cercopithecidae
[1] = tested on: Monkey; assay: Effect of compound on rate of response maintained by food (3.696 resp/s, +/-9.99%) in monkeys
[2] = tested on: Monkey; assay: Effect of compound on rate of response maintained by cocaine (4.026 resp/s,+/-13.6%) in monkeys at a dose of 6 mL
[3] = tested on: Monkey; assay: Effect of compound on rate of response maintained by cocaine (4.026 resp/s,+/-13.6%) in monkeys at a dose of 3 mL
[4] = tested on: Monkey; assay: Effect of compound on rate of response maintained by food (3.696 resp/s, +/-9.99%) in monkeys at a dose of 3 mL
[5] = tested on: Monkey; assay: Effect of compound on rate of response maintained by cocaine (4.026 resp/s,+/-13.6%) in monkeys

CCCCCCCCCC(=O)OC(CCN1CCN(CCOC(c2ccc(F)cc2)c2ccc(F)cc2)CC1)c1ccccc1 (stereo not given)
Control [1]: 97% | Control [2]: 25.3% | Control [3]: 74% | Control [4]: 82% | Control [5]: 76.2%

Source: ChEMBL document CHEMBL1129406, “Sustained decrease in cocaine-maintained responding in rhesus monkeys with 1-[2-[bis(4-fluorophenyl)methoxy]ethyl]-4-(3-hydroxy-3-phenylpropyl) piperazinyl decanoate, a long-acting ester derivative of GBR 12909” (1996)
